According to ChEMBL document CHEMBL4834486 (Bioorg Med Chem, 2021):
pIC50: −log10 of the molar value. The source made the active and inactive calls. The calls are words filed in the database; no cut-off is given here.

Experiments:
[1] = test system: MDA-MB-231; assay: Antiproliferative activity against human MDA-MB-231 cells assessed as inhibition of cell proliferation measured after 72 hrs by CCK-8 assay; assay type: functional, cell-based; conditions: MDA-MB-231, 72 h
[2] = test system: MCF7; assay: Antiproliferative activity against human MCF7 cells assessed as inhibition of cell proliferation measured after 72 hrs by CCK-8 assay; assay type: functional, cell-based; conditions: MCF7, 72 h
[3] = test system: MCF-10A; assay: Cytotoxicity against human MCF-10A cells assessed as inhibition of cell proliferation measured after 72 hrs by CCK-8 assay; assay type: cell-based
[4] = test system: MDA-MB-231; assay: Cell cycle arrest in human MDA-MB-231 cells assessed as accumulation of cells at G1 phase at 5 uM measured after 72 hrs by PI staining based flow cytometry method (reference value: 51.58%); assay type: functional
[5] = test system: MDA-MB-231; assay: Induction of ROS generation in human MDA-MB-231 cells at 1.25 uM measured after 72 hrs by DCFH-DA staining based flow cytomtery (reference value: 4.37%); assay type: functional
[6] = test system: MDA-MB-231; assay: Induction of apoptosis in human MDA-MB-231 cells assessed as early apoptotic cells at 1.25 uM measured after 72 hrs by Annexin V-FITC/PI staining based flow cytometry method (reference value: 4.42%); assay type: functional
[7] = test system: MDA-MB-231; assay: Cell cycle arrest in human MDA-MB-231 cells assessed as accumulation of cells at S phase at 5 uM measured after 72 hrs by PI staining based flow cytometry method (reference value: 36.19%); assay type: functional
[8] = test system: MDA-MB-231; assay: Cell cycle arrest in human MDA-MB-231 cells assessed as accumulation of cells at S phase at 2.5 uM measured after 72 hrs by PI staining based flow cytometry method (reference value: 36.19%); assay type: functional
[9] = test system: MDA-MB-231; assay: Cell cycle arrest in human MDA-MB-231 cells assessed as accumulation of cells at G1 phase at 1.25 uM measured after 72 hrs by PI staining based flow cytometry method (reference value: 51.58%); assay type: functional
[10] = test system: MDA-MB-231; assay: Induction of apoptosis in human MDA-MB-231 cells assessed as necrotic cells at 2.5 uM measured after 72 hrs by Annexin V-FITC/PI staining based flow cytometry method (reference value: 0.97%); assay type: functional
[11] = test system: MDA-MB-231; assay: Induction of apoptosis in human MDA-MB-231 cells assessed as viable cells at 5 uM measured after 72 hrs by Annexin V-FITC/PI staining based flow cytometry method (reference value: 93.27%); assay type: functional; conditions: read-out: Activity
[12] = test system: MDA-MB-231; assay: Induction of DNA damage in human MDA-MB-231 cells assessed as increase in tail DNA measured after 72 hrs by comet assay; assay type: functional, cell-based; conditions: dose 1.25-5 µM
[13] = test system: MDA-MB-231; assay: Induction of apoptosis in human MDA-MB-231 cells assessed as necrotic cells at 5 uM measured after 72 hrs by Annexin V-FITC/PI staining based flow cytometry method (reference value: 0.97%); assay type: functional
[14] = test system: MDA-MB-231; assay: Inhibition of cell invasion in human MDA-MB-231 cells at 1.25 to 5 uM measured after 24 hrs by transwell assay; assay type: functional, cell-based; conditions: dose 1.25-5 µM
[15] = test system: MDA-MB-231; assay: Induction of apoptosis in human MDA-MB-231 cells assessed as viable cells at 1.25 uM measured after 72 hrs by Annexin V-FITC/PI staining based flow cytometry method (reference value: 93.27%); assay type: functional; conditions: read-out: Activity
[16] = test system: MDA-MB-231; assay: Cell cycle arrest in human MDA-MB-231 cells assessed as accumulation of cells at G2/M phase at 1.25 uM measured after 72 hrs by PI staining based flow cytometry method (reference value: 12.24%); assay type: functional
[17] = test system: MDA-MB-231; assay: Induction of ROS generation in human MDA-MB-231 cells at 2.5 uM measured after 72 hrs by DCFH-DA staining based flow cytometry (reference value: 4.37%); assay type: functional
[18] = test system: MDA-MB-231; assay: Cell cycle arrest in human MDA-MB-231 cells assessed as accumulation of cells at S phase at 1.25 uM measured after 72 hrs by PI staining based flow cytometry method (reference value: 36.19%); assay type: functional
[19] = test system: MDA-MB-231; assay: Cell cycle arrest in human MDA-MB-231 cells assessed as accumulation of cells at G2/M phase at 5 uM measured after 72 hrs by PI staining based flow cytometry method (reference value: 12.24%); assay type: functional
[20] = test system: MDA-MB-231; assay: Cell cycle arrest in human MDA-MB-231 cells assessed as accumulation of cells at G1 phase at 2.5 uM measured after 72 hrs by PI staining based flow cytometry method (reference value: 51.58%); assay type: functional
[21] = test system: MDA-MB-231; assay: Induction of apoptosis in human MDA-MB-231 cells assessed as necrotic cells at 1.25 uM measured after 72 hrs by Annexin V-FITC/PI staining based flow cytometry method (reference value: 0.97%); assay type: functional
[22] = test system: MDA-MB-231; assay: Induction of apoptosis in human MDA-MB-231 cells assessed as viable cells at 2.5 uM measured after 72 hrs by Annexin V-FITC/PI staining based flow cytometry method (reference value: 93.27%); assay type: functional; conditions: read-out: Activity
[23] = test system: MDA-MB-231; assay: Induction of apoptosis in human MDA-MB-231 cells assessed as late apoptotic cells at 1.25 uM measured after 72 hrs by Annexin V-FITC/PI staining based flow cytometry method (reference value: 1.34%); assay type: functional
[24] = test system: MDA-MB-231; assay: Induction of ROS generation in human MDA-MB-231 cells at 5 uM measured after 72 hrs by DCFH-DA staining based flow cytometry (reference value: 4.37%); assay type: functional
[25] = test system: MDA-MB-231; assay: Induction of DNA damage in human MDA-MB-231 cells assessed as increase in generation of endogenous double strand DNA break adducts measured after 72 hrs by comet assay; assay type: functional, cell-based; conditions: dose 1.25-5 µM
[26] = test system: MDA-MB-231; assay: Inhibition of cell migration in human MDA-MB-231 cells measured after 24 hrs by scratch wound healing assay; assay type: functional, cell-based; conditions: dose 1.25-5 µM
[27] = test system: MDA-MB-231; assay: Induction of apoptosis in human MDA-MB-231 cells assessed as early apoptotic cells at 2.5 uM measured after 72 hrs by Annexin V-FITC/PI staining based flow cytometry method (reference value: 4.42%); assay type: functional
[28] = test system: MDA-MB-231; assay: Induction of apoptosis in human MDA-MB-231 cells assessed as late apoptotic cells at 5 uM measured after 72 hrs by Annexin V-FITC/PI staining based flow cytometry method (reference value: 1.34%); assay type: functional
[29] = test system: MDA-MB-231; assay: Induction of apoptosis in human MDA-MB-231 cells assessed as early apoptotic cells at 5 uM measured after 72 hrs by Annexin V-FITC/PI staining based flow cytometry method (reference value: 4.42%); assay type: functional
[30] = test system: MDA-MB-231; assay: Inhibition of cell adhesion in human MDA-MB-231 cells measured after 72 hrs by fluorescence microscopy; assay type: functional, cell-based; conditions: dose 1.25-5 µM
[31] = test system: MDA-MB-231; assay: Cell cycle arrest in human MDA-MB-231 cells assessed as accumulation of cells at G2/M phase at 2.5 uM measured after 72 hrs by PI staining based flow cytometry method (reference value: 12.24%); assay type: functional
[32] = test system: MDA-MB-231; assay: Induction of apoptosis in human MDA-MB-231 cells assessed as late apoptotic cells at 2.5 uM measured after 72 hrs by Annexin V-FITC/PI staining based flow cytometry method (reference value: 1.34%); assay type: functional

Cc1nc(COC(=O)[C@H](Cc2ccc(N(CCCl)CCCl)cc2)NC(=O)OC(C)(C)C)cc2c1[nH]c1ccccc12 was tested, and the pIC50 [1] was 4.76, the pIC50 [2] was 5.31 and the pIC50 [3] was under 4.40.
In the case of COc1ccc(-c2nc(COC(=O)[C@H](Cc3ccc(N(CCCl)CCCl)cc3)NC=O)cc3c2[nH]c2ccccc23)cc1, the pIC50 [1] was 5.24, the pIC50 [2] was 5.37 and the pIC50 [3] was 4.50.
Cc1nc(COC(=O)[C@H](Cc2ccc(N(CCCl)CCCl)cc2)NC=O)cc2c1[nH]c1ccccc12 was tested, and the Activity [4] was 42.06%, the Activity [5] was 17.2% and the Activity [6] was 8.77%. For the same compound, the Activity [7] was 37.74%, the Activity [8] was 38.72% and the Activity [9] was 47.85%. For the same compound, the Activity [10] was 3.39%, the viability at 5 µM [11] was 48.5% and the Activity [12] was “Dose-Dependent Effect”. For the same compound, the Activity [13] was 5.32%, the pIC50 [1] was 5.30 and the inhibition [14] was “Active”. The viability at 1.25 µM [15] was 78%, the pIC50 [2] was 5.75 and the Activity [16] was 13.62%. For the same compound, the Activity [17] was 20.33%, the Activity [18] was 38.53% and the Activity [19] was 20.2%. It also gave an Activity [20] of 44.83%, an Activity [21] of 3.49% and a pIC50 [3] of 4.65. It also gave a viability at 2.5 µM [22] of 74.2%, an Activity [23] of 9.71% and an Activity [24] of 47.15%. For the same compound, the Activity [25] was “Dose-Dependent Effect”, the inhibition [26] was “Dose-Dependent Effect” and the Activity [27] was 12.24%. For the same compound, the Activity [28] was 22.85%, the Activity [29] was 23.28% and the inhibition [30] was “Dose-Dependent Effect”. It also gave an Activity [31] of 16.45% and an Activity [32] of 10.22%.
O=C(OCc1cc2c(cn1)[nH]c1ccccc12)c1ccc(N(CCCl)CCCl)cc1 gave a pIC50 [1] of 5.02, a pIC50 [2] of 5.64 and a pIC50 [3] of under 4.40.
Compound O=CN[C@@H](Cc1ccc(N(CCCl)CCCl)cc1)C(=O)OCc1cc2c(cn1)[nH]c1ccccc12 has a pIC50 [1] of 5.19, a pIC50 [2] of 5.57 and a pIC50 [3] of 4.59.
COc1ccc(-c2nc(COC(=O)[C@H](Cc3ccc(N(CCCl)CCCl)cc3)NC(=O)OC(C)(C)C)cc3c2[nH]c2ccccc23)cc1 was tested, and the pIC50 [1] was 4.71, the pIC50 [2] was 5.27 and the pIC50 [3] was under 4.40.
COC(=O)[C@H](Cc1ccc(N(CCCl)CCCl)cc1)NC(=O)CCCC(=O)OCc1cc2c([nH]c3ccccc32)c(-c2ccc(OC)cc2)n1 was tested, and the pIC50 [1] was under 4.70, the pIC50 [2] was under 4.70 and the pIC50 [3] was under 4.40.
Compound COC(=O)[C@H](Cc1ccc(N(CCCl)CCCl)cc1)NC(=O)CCC(=O)OCc1cc2c([nH]c3ccccc32)c(-c2ccc(OC)cc2)n1 has a pIC50 [1] of under 4.70, a pIC50 [2] of 4.77 and a pIC50 [3] of under 4.40.
In the case of COC(=O)[C@H](Cc1ccc(N(CCCl)CCCl)cc1)NC(=O)CCC(=O)OCc1cc2c([nH]c3ccccc32)c(C)n1, the pIC50 [1] was under 4.70, the pIC50 [2] was under 4.70 and the pIC50 [3] was under 4.40.
Compound CC(C)(C)OC(=O)N[C@@H](Cc1ccc(N(CCCl)CCCl)cc1)C(=O)OCc1cc2c(cn1)[nH]c1ccccc12 has a pIC50 [1] of 4.77, a pIC50 [2] of 5.46 and a pIC50 [3] of under 4.40.
